Patent publication US20150038541A1, “COMPOSITION AND METHODS FOR CELL MODULATION” (APOSIGNAL BIOSCIENCE LLC, priority 2012, published 2015)
pIC50: −log10 of the molar value. Like-named read-outs stand apart in the source and are kept apart here.

Experiments:
[1] = tested on: HeLa cells
Method: HeLa cells were treated with 10 micrograms/ml cycloheximide alone or together with a range of TNF-alpha concentrations from 2.5 to 20 nanograms per ml. Following treatment, the cells were fixed with 4% paraformaldehyde (4° C. for 30 minutes), stained for 30 minutes with 0.5% crystal violet in 10% ethanol, and washed extensively with water to remove dye that was not bound to the cells. Cell bound crystal violet was solubilized with 10% acetic acid and absorbance was measured at 590 nm to quantitate cell growth. The time course data for each cell line were fit by nonlinear regression analysis to the equation for exponential growth using GraphPad Prism software.

[2] = tested on: HeLa cells; test: MTS cell viability of HeLa cells treated with anticancer drug with or without AS-7 (48 hours); type: cell-based, human; conditions: Homo sapiens, HeLa, 48 h, 48 hours, MTS, read-out: IC50 of carfilzomib (loss of HeLa cell viability)
[3] = tested on: HeLa cells; test: as above; type: cell-based, human; conditions: for pIC50: Homo sapiens, HeLa, 48 h, 48 hours, MTS, read-out: IC50 of bortezomib (loss of HeLa cell viability)
Method: HeLa cells were seeded in a 96 well tissue culture plate (2000 cells per well). The compounds, 10 μM AS-7 and bortezomib (BioVision, Inc., Milpitas, Calif.) at the concentrations indicated in FIG. 1, were added the following day. AS-7 was prepared according to the Ugi reaction by combination of the four components: isocyanide (III), m-cyanobenzaldehyde (IV), 2-benzoylbenzoic acid (V), and histamine (VI) in refluxing methanol (Ref. http://www.occhem.com/synthesis/2561 2.html). The Medicinal Chemistry unit of Southern Research Institute (2000 Ninth Avenue South Birmingham, Ala. 35205) was contracted by a fee for service agreement to synthesize AS-7.
After 48 hours, MTS (3-(4,5-dimethylthiazol-2-yl)-5-(3-carboxymethoxyphenyl)-2-(4-sulfophenyl)-2H-tetrazolium) was added and absorbance was measured at 490 nm. […] Values in FIG. 1 are relative to controls that contained only the vehicle in which the drugs were dissolved. Vehicle had no effect on cell viability. Error bars in FIG. 1 are not visible if they are smaller than the symbols. […]
HeLa cells were seeded in a 96 well tissue culture plate (2000 cells per well). The compounds, 10 μM AS-7 and bortezomib at the concentrations indicated in FIG. 9 were added the following day. After 48 hours, MTS was added and absorbance was measured at 490 nm. […] Values are relative to controls that contained only the vehicle in which the drugs were dissolved. Vehicle had no effect on cell viability.

[4] = cited from earlier work
[5] = tested on: T47D cells; test: MTS cell viability of breast cancer T47D cells, bortezomib with or without AS-7; type: cell-based, human; conditions: 48 hours, MTS
Method: (§1) Breast cancer derived cell lines, T47D and 159C, were seeded in a 96 well tissue culture plate (2000 cells per well). The significance of these two lines of breast cancer derived cell lines is that the T47D cells positive for three markers used to optimize the chemotherapeutic treatment, namely HER2 receptor, estrogen receptor, and progesterone receptor. By contrast to the T47D cells, the 159C cells are negative for the three markers. The compounds, 10 μM AS-7 and a range of bortezomib (BioVision, Inc., Milpitas, Calif.) concentrations were added the following day. After 48 hours, MTS was added and absorbance was measured at 490 nm.

[6] = tested on: Melanoma A2620 cells; test: Crystal violet cell viability of melanoma A2620 cells, bortezomib with or without AS-7 (72 hours); type: cell-based, human; conditions: Homo sapiens, 72 h, read-out: IC50 of bortezomib (loss of cell viability)
Method: Melanoma A2620 cells were seeded in a 96 well tissue culture plate (2000 cells per well). The compounds, 10 μM AS-7 and bortezomib at the concentrations indicated in FIG. 8 were added the following day. […] Values are relative to controls that contained only the vehicle in which the drugs were dissolved. Vehicle had no effect on cell viability.

[7] = tested on: solid tumors; conditions: phase I and II clinical trials; single agent or in combination with several anticancer drugs; cited from earlier work
[8] = tested on: ovarian A2780 cells; test: Crystal violet cell viability of ovarian A2780 cells, bortezomib with or without AS-7 (72 hours); type: cell-based, human; conditions: Homo sapiens, A2780, 72 h, 72 hours, crystal violet, read-out: IC50 of the cytotoxic effect of bortezomib towards ovarian A2780 cells
Method: Ovarian tumor-derived cell lines, IGROV and A2780, were seeded in a 96 well tissue culture plate (2000 cells per well). The compounds, 10 μM AS-7 and bortezomib (BioVision, Inc., Milpitas, Calif.) at the concentrations indicated in the figures, were added the following day. AS-7 was prepared as described in Example I above. […] Values are relative to cells that with the vehicle in which the drugs were dissolved. Vehicle had no effect on cell viability. Error bars in FIG. 6 and FIG. 7 are not shown if they are smaller than the symbols.

[9] = tested on: proteasome; test: Proteasome activity measured in lysates of treated cells; type: cell-based; conditions: bortezomib treated HeLa cells; data not shown
Description: (§2) The cytotoxic action of bortezomib is known to be mediated by proteasome inhibition and the induction of apoptosis.

[10] = tested on: caspase-3; test: Caspase-3 activity measured in lysates of treated HeLa cells; type: cell-based; conditions: bortezomib treated HeLa cells; data not shown
Description: as §2

[11] = tested on: 159C cells; test: MTS cell viability of breast cancer 159C cells, bortezomib with or without AS-7; type: cell-based; conditions: 48 hours, MTS
Method: as §1

With TNF-alpha as the compound, how does the “cytotoxicity to HeLa cells” value ([1]; TNF-alpha in combination with cycloheximide, apparent within six hours) read?
Its value is “rapidly cytotoxic”.

With `CC(C)C[C@H](NC(=O)[C@H](CCc1ccccc1)NC(=O)CN1CCOCC1)C(=O)N[C@@H](Cc1ccccc1)C(=O)N[C@@H](CC(C)C)C(=O)[C@@]1(C)CO1` [carfilzomib] as the compound, how does the pIC50 ([2]; in the absence of AS-7) read?
Its pIC50 is about 8.07.

What about the pIC50 ([2]; in the presence of 10 μM AS-7) of the same compound?
The pIC50 was about 8.60.

For `C[C@@H]1C[C@@H]([C@H](O)CC2CC(=O)NC(=O)C2)C(=O)[C@@H](C)C1` [cycloheximide, reference compound], which “effect on HeLa cell proliferation and cell death” value ([1]; 10 micrograms/ml cycloheximide alone, 24 hour interval, absence or presence of AS-7) is on record?
Its value is “cytostatic, but not cytotoxic”.

For `CC(C)CC(C=CS(C)(=O)=O)NC(=O)C(CC(C)C)NC(=O)C(CC(C)C)NC(=O)Cc1cc(I)c(O)c([N+](=O)[O-])c1` (stereo not drawn) [NLVS, 4-hydroxy-5-iodo-3-nitrophenylacetyl-Leu-Leu-leucinal-vinyl sulfone, reference compound], which “HeLa cell viability at NLVS concentrations that by themselves had little effect” value ([3]; in the presence of 10 μM AS-7) is on record?
Its value is “complete loss of viability”.

Which results are given for `CC(C)C[C@H](NC(=O)[C@H](Cc1ccccc1)NC(=O)c1cnccn1)B(O)O` [bortezomib]?
median time to improvement from the neurotoxicity ([4]; after discontinuation of bortezomib treatment): three; patients with Grades 1 and 2 peripheral neuropathy ([4]; patients with newly diagnosed disease under bortezomib therapy): ≤ 33%; patients with grades 3 and 4 neurotoxicity ([4]; patients with newly diagnosed disease): up to 18%; patients with Grades 1 and 2 peripheral neuropathy ([4]; patients with recurrent disease under bortezomib therapy): up to 75%; patients with grades 3 and 4 neurotoxicity ([4]; patients with recurrent disease): up to 30%; sensitivity to the cytotoxic action of bortezomib by itself [5]: highly sensitive; pIC50 ([6]; in the absence of AS-7, 72 hours): ~8.14; pIC50 ([6]; in the presence of 10 μM AS-7, 72 hours): ~8.62; activity against solid tumors [7]: quite limited activity; pIC50 ([8]; in the absence of AS-7): ~7.89; pIC50 ([8]; in the presence of 10 μM AS-7): ~8.38; proteasome activity in cell lysates [9]: markedly inhibited; pIC50 ([3]; in the absence of AS-7): ~8.06; pIC50 ([3]; in the presence of 10 μM AS-7): ~8.60; caspase-3 activity in cell lysates [10]: increased; sensitivity to the cytotoxic action of bortezomib by itself [11]: highly sensitive
